Residue numbers refer to the chain shown, from its start. Where a SMILES comes first, the peptide text is derived from it.
Experiments:
Assay type in all cases: cell-based, rabbit
[1] = molecular target: T1, R282Q-PepT1 (Oryctolagus cuniculus, UniProt P36836, R282Q); assay: Inhibition of [3H]-D-Phe-L-Gln uptake into Xenopus oocytes expressing R282Q-PepT1 (competition, Ki); conditions: pHout 5.5, 0.4 μM [3H]-D-Phe-L-Gln
T1 construct: expressed in transfected cells; host or cells: Xenopus laevis oocytes injected with cRNA
T1 sequence (P36836 1-707 R282Q): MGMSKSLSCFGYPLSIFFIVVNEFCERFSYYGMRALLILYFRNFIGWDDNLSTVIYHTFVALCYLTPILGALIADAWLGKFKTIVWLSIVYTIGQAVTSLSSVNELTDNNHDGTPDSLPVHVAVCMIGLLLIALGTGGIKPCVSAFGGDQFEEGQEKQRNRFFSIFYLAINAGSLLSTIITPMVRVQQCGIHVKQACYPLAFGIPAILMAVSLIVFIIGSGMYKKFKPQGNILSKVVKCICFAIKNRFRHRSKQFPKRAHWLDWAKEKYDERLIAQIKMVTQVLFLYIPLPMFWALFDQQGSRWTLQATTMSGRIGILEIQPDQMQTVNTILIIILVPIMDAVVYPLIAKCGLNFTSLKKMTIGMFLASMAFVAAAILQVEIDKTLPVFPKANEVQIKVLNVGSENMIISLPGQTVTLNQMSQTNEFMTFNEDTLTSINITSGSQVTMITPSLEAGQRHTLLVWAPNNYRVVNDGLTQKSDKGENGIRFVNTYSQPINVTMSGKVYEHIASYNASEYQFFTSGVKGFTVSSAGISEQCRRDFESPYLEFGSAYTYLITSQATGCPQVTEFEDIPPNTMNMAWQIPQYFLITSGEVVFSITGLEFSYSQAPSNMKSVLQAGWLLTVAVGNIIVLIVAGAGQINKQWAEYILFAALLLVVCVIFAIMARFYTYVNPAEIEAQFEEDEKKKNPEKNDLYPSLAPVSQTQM
Description: (§1) Zero-trans uptake of [^3H]-D-Phe-L-Gln (17.4 Ci/mmole, custom synthesised, Cambridge Research Biochemicals, Stockton-on-Tees, UK) was performed as previously described ([Meredith, 2004]). Briefly, 5 oocytes were incubated in 100 μl of uptake medium (95 mM NaCl, 2 mM KCl, 1 mM CaCl2, 0.42 mM MgCl2, 10 mM Tris/Hepes pH 7.4 or Tris/Mes pH 5.5) with tracer (0.4 μM) [^3H]-D-Phe-L-Gln. After incubation, the oocytes were washed sequentially five times in 1 ml of ice-cold 120 mM NaCl solution, lysed individually with 100 μl 2% (w/v) SDS and liquid scintillation counted. As a control non-injected oocytes were also incubated in uptake medium with [^3H]-D-Phe-L-Gln as above.
(§2) The affinity of wild-type and mutant PepT1 were assessed by competition studies with 0.4 μM [^3H]-D-Phe-L-Gln and Gly-L-Gln present in the uptake medium in concentrations from 0 to 2 mM using the protocol above, and the Ki calculated using the method of [Deves and Boyd (1989)].

[2] = molecular target: T2, R282K-PepT1 (Oryctolagus cuniculus, UniProt P36836, R282K); assay: Inhibition of [3H]-D-Phe-L-Gln uptake into Xenopus oocytes expressing R282K-PepT1 (competition, Ki); conditions: pHout 5.5, 0.4 μM [3H]-D-Phe-L-Gln
T2 construct: expressed in transfected cells; host or cells: Xenopus laevis oocytes injected with cRNA
T2 sequence (P36836 1-707 R282K): T1 sequence (P36836 1-707 R282Q) with Q282K
Description: as §1, §2

[3] = molecular target: T3, wild-type PepT1 (Oryctolagus cuniculus, UniProt P36836); assay: Diethylpyrocarbonate inhibition of PepT1-mediated dipeptide uptake and protection by substrates; conditions: 5 mM present during 1 mM DEPC incubation (15 min), uptake measured over 1 h
T3 construct: expressed in transfected cells; host or cells: Xenopus laevis oocytes injected with cRNA
T3 sequence (P36836 1-707): T1 sequence (P36836 1-707 R282Q) with Q282R
Description: as §1
Diethylpyrocarbonate (DEPC) inhibition of PepT1 was performed using a similar protocol to that of [Terada, Saito, and Inui (1998)]. Briefly, PepT1 oocytes were preincubated with 1 mM DEPC for 15 min at pHout 5.5 in the absence or presence of the PepT1 substrates Gly-L-Gln, N-Acetyl-Phe ([Meredith et al., 2000]), and L-Ala-Tyramine (custom synthesised) and the non-substrate Tyr (all 5 mM). The oocytes were then washed in uptake medium before uptake assays were performed as detailed above.

Ki [1]: 460 ± 220 µM | Ki [2]: 480 ± 260 µM | protection of PepT1 from DEPC inhibition [3]: largely prevented
SMILES: NCC(=O)N[C@@H](CCC(N)=O)C(=O)O [Gly-L-Gln] (H-Gly-Gln-OH)
